Laboratory results as given in the NIST ThermoML archive (doi:10.1021/je700234e).
± gives the expanded uncertainty stated by the source.

Key:
[1] = Crystal; DTA
[2] = Molar enthalpy of transition or fusion; settings: Crystal; DSC

In the case of `O=S1(=O)c2ccccc2-c2ccccc21` [dibenzothiophene sulfone], the Normal melting temperature [1] is reported as 236.1 ± 0.5 °C and the “Molar enthalpy of transition or fusion” value [2] is reported as 27.2 ± 0.82 kJ/mol.
